Experimental data reported in the NIST ThermoML archive (doi:10.1016/j.jct.2005.10.002).
Values joined by “and” are separate entries in the source; they are usually repeats but may differ in a detail not shown here. Identical values can stand only once.

Settings: Liquid; for mass density: 101.33 kPa

CCC(C)(O)CC [3-methyl-3-pentanol]
Settings | mass density
278.15 K | 840.5 kg/m3 and 841 kg/m3
279.15 K | 839.7 kg/m3 and 840.2 kg/m3
280.15 K | 838.9 kg/m3 and 839.4 kg/m3
281.15 K | 838.1 kg/m3 and 838.5 kg/m3
282.15 K | 837.2 kg/m3 and 837.7 kg/m3
283.15 K | 836.4 kg/m3 and 836.8 kg/m3
284.15 K | 835.6 kg/m3 and 836 kg/m3
285.15 K | 834.8 kg/m3 and 835.2 kg/m3
286.15 K | 833.9 kg/m3 and 834.4 kg/m3
287.15 K | 833.5 kg/m3 and 833.1 kg/m3
288.15 K | 832.7 kg/m3 and 832.3 kg/m3
289.15 K | 831.9 kg/m3 and 831.4 kg/m3
290.15 K | 831 kg/m3 and 830.6 kg/m3
291.15 K | 830.1 kg/m3 and 829.7 kg/m3
292.15 K | 829.3 kg/m3 and 828.9 kg/m3
293.15 K | 828.5 kg/m3 and 828 kg/m3
294.15 K | 827.6 kg/m3 and 827.1 kg/m3
295.15 K | 826.7 kg/m3 and 826.3 kg/m3
296.15 K | 825.9 kg/m3 and 825.4 kg/m3
297.15 K | 825 kg/m3 and 824.5 kg/m3
298.15 K | 824.1 kg/m3 and 823.6 kg/m3
299.15 K | 823.2 kg/m3 and 822.8 kg/m3
300.15 K | 822.3 kg/m3 and 821.9 kg/m3
301.15 K | 821.5 kg/m3 and 821 kg/m3
302.15 K | 820.6 kg/m3 and 820.1 kg/m3
303.15 K | 819.7 kg/m3 and 819.2 kg/m3
304.15 K | 818.8 kg/m3 and 818.3 kg/m3
305.15 K | 817.9 kg/m3 and 817.4 kg/m3
306.15 K | 816.9 kg/m3 and 816.5 kg/m3
307.15 K | 816 kg/m3 and 815.5 kg/m3
308.15 K | 815.1 kg/m3 and 814.6 kg/m3
309.15 K | 814.2 kg/m3 and 813.7 kg/m3
310.15 K | 813.3 kg/m3 and 812.8 kg/m3
311.15 K | 812.3 kg/m3 and 811.8 kg/m3
312.15 K | 811.4 kg/m3 and 810.9 kg/m3
313.15 K | 810.5 kg/m3 and 810 kg/m3
314.15 K | 809.5 kg/m3 and 809 kg/m3
315.15 K | 808.6 kg/m3 and 808.1 kg/m3
316.15 K | 807.6 kg/m3 and 807.1 kg/m3
317.15 K | 806.7 kg/m3 and 806.2 kg/m3
318.15 K | 805.7 kg/m3 and 805.2 kg/m3
319.15 K | 804.8 kg/m3 and 804.3 kg/m3
320.15 K | 803.8 kg/m3 and 803.3 kg/m3
321.15 K | 802.8 kg/m3 and 802.3 kg/m3
322.15 K | 801.9 kg/m3 and 801.3 kg/m3
323.15 K | 800.9 kg/m3 and 800.4 kg/m3
324.15 K | 799.9 kg/m3 and 799.4 kg/m3
325.15 K | 798.9 kg/m3 and 798.4 kg/m3
326.15 K | 798 kg/m3 and 797.4 kg/m3
327.15 K | 797 kg/m3 and 796.4 kg/m3
328.15 K | 796 kg/m3 and 795.4 kg/m3
329.15 K | 795 kg/m3 and 794.4 kg/m3
330.15 K | 794 kg/m3 and 793.4 kg/m3
331.15 K | 793 kg/m3 and 792.4 kg/m3
332.15 K | 792 kg/m3 and 791.4 kg/m3
333.15 K | 791 kg/m3 and 790.4 kg/m3
334.15 K | 789.9 kg/m3 and 789.4 kg/m3
335.15 K | 788.9 kg/m3 and 788.4 kg/m3
336.15 K | 787.9 kg/m3 and 787.4 kg/m3
337.15 K | 786.9 kg/m3 and 786.4 kg/m3
338.15 K | 785.9 kg/m3 and 785.3 kg/m3
339.15 K | 784.3 kg/m3
340.15 K | 783.3 kg/m3
341.15 K | 782.3 kg/m3
342.15 K | 781.2 kg/m3
343.15 K | 780.2 kg/m3
344.15 K | 779.1 kg/m3
345.15 K | 778.1 kg/m3
346.15 K | 777.1 kg/m3
347.15 K | 776 kg/m3
348.15 K | 775 kg/m3
349.15 K | 773.9 kg/m3
350.15 K | 772.9 kg/m3
351.15 K | 771.8 kg/m3
352.15 K | 770.7 kg/m3
353.15 K | 769.7 kg/m3
354.15 K | 768.6 kg/m3
355.15 K | 767.6 kg/m3
356.15 K | 766.5 kg/m3
357.15 K | 765.4 kg/m3
358.15 K | 764.4 kg/m3
359.15 K | 763.3 kg/m3
360.15 K | 762.2 kg/m3
361.15 K | 761.1 kg/m3
362.15 K | 760.1 kg/m3
363.15 K | 759 kg/m3
364.15 K | 757.9 kg/m3
365.15 K | 756.8 kg/m3
366.15 K | 755.7 kg/m3
367.15 K | 754.6 kg/m3
368.15 K | 753.5 kg/m3

speed of sound [m/s]
Settings | 303.15 K | 313.15 K | 323.15 K | 333.15 K | 343.15 K | 353.15 K | 363.15 K | 373.15 K
100 kPa | 1230.7 | 1192.7 | 1154.4 | 1115.7 | 1077.3 | 1037.7 | 998.2 | 957.7
10000 kPa | 1290.1 | 1254.9 | 1219.2 | 1183.6 | 1148 | 1111.6 | 1076.2 | 1039.5
20000 kPa | 1344.9 | 1311.8 | 1278.7 | 1245 | 1211.1 | 1177.7 | 1144.6 | 1110.9
30000 kPa | 1396.1 | 1365 | 1332.4 | 1300.4 | 1268.5 | 1236.9 | 1205.4 | 1174
40000 kPa | 1443.3 | 1412.6 | 1382.1 | 1351.9 | 1321.7 | 1291.4 | 1261.4 | 1231.1
50000 kPa | 1487.1 | 1457.9 | 1428.9 | 1399.7 | 1370.5 | 1342.1 | 1312.6 | 1283.7
60000 kPa | 1529.7 | 1500.4 | 1472.8 | 1444.4 | 1416 | 1387.8 | 1359.8 | 1332
70000 kPa | 1568.8 | 1540.7 | 1513.6 | 1486.1 | 1458.4 | 1431.2 | 1404.8 | 1377.5
80000 kPa | 1606.2 | 1578.9 | 1552.8 | 1525.6 | 1499.4 | 1472.7 | 1446.9 | 1420.3
90000 kPa | 1641.7 | 1615 | 1589.9 | 1563.8 | 1537.9 | 1511.9 | 1486.5 | 1461.1
100000 kPa | 1675.9 | 1650 | 1624.9 | 1599.9 | 1574.6 | 1549.3 | 1524.4 | 1499.3
